Calls of active or inactive are those of the source.
Columns and labels:
Caspase-3 = target: T1, Caspase-3 (Homo sapiens, UniProt P42574); assay type: functional;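 note: Dose-response selectivity test against caspase-3 for candidate inhibitors of sentrin-specific proteases (SENPs)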
T1 sequence (P42574 whole entry): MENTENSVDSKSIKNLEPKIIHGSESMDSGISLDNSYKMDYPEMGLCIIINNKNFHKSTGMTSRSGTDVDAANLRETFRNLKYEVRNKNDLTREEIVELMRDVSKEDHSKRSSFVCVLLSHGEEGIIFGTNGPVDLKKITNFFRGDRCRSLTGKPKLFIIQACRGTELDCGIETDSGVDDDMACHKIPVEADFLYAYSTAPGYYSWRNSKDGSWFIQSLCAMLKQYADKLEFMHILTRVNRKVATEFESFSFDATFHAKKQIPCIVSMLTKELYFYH

[1] = target: T2, Sentrin-specific protease 7 (Homo sapiens, UniProt Q9BQF6); assay type: functional;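 note: Luminescence-based dose-response confirmation of ultra-high-throughput screening hits, measuring inhibition of SENP7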
T2 sequence (Q9BQF6 whole entry): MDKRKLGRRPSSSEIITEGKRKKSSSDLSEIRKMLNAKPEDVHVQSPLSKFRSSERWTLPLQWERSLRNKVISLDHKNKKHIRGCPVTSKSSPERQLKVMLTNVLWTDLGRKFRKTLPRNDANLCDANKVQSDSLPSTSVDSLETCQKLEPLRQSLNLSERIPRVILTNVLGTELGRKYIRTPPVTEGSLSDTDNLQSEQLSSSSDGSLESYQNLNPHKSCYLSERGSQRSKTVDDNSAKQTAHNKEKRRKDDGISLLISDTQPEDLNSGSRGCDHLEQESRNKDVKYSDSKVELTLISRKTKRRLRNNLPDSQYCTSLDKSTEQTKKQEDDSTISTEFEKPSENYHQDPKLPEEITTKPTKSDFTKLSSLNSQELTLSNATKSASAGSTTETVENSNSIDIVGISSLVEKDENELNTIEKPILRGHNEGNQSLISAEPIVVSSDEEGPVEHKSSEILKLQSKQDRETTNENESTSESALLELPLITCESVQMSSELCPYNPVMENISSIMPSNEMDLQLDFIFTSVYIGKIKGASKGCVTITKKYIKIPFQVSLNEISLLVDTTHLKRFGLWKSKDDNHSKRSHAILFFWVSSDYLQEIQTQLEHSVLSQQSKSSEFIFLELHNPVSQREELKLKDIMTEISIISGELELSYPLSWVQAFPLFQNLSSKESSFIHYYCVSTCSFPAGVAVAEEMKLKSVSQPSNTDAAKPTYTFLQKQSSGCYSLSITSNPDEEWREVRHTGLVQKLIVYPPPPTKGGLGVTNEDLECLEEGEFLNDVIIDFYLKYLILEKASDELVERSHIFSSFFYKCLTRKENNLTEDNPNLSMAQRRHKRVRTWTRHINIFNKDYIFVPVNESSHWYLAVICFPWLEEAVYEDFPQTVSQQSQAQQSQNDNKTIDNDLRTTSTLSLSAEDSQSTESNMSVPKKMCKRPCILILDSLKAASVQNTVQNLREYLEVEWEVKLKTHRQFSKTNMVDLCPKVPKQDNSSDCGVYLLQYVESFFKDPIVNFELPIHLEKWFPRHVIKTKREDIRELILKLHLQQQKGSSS

[2] = target: T3, Sentrin-specific protease 6 (Homo sapiens, UniProt Q9GZR1); assay type: functional;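 note: Luminescence-based dose-response confirmatory assay of SENP6 inhibition, following up an ultra-high-throughput screen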
T3 sequence (Q9GZR1 whole entry): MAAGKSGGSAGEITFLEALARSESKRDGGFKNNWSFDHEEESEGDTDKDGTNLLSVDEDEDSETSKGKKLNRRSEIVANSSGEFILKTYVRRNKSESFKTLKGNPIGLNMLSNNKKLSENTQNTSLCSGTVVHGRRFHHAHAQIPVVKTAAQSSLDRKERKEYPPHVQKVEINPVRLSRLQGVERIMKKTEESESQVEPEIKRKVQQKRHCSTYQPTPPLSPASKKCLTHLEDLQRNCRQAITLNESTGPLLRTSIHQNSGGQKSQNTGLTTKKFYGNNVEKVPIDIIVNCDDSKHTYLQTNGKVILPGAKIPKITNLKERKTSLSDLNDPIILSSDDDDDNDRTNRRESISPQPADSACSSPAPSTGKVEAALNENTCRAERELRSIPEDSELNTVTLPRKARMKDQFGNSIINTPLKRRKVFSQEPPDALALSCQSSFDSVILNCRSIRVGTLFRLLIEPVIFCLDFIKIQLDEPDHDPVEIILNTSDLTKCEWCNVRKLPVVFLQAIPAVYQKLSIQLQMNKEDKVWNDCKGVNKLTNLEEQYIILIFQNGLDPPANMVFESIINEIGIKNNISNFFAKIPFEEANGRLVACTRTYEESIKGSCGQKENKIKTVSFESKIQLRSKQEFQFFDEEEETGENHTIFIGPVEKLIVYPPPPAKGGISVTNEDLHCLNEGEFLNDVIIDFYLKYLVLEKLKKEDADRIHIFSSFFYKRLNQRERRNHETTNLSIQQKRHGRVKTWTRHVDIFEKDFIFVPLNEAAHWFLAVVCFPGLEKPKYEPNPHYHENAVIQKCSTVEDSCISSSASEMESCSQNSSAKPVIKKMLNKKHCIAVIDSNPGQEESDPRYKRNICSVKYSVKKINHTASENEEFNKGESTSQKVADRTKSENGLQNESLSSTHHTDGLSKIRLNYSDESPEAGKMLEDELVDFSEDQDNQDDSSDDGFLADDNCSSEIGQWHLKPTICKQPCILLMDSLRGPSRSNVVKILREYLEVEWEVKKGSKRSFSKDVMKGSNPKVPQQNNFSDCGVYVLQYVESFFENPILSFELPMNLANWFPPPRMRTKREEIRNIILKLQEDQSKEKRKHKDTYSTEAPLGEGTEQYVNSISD

[3] = target: T4, Sentrin-specific protease 8 (Homo sapiens, UniProt Q96LD8); assay type: functional;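 note: luminescence read-out of SENP8 inhibition, dose-response confirmation following an ultra-high-throughput screen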
T4 sequence (Q96LD8 whole entry): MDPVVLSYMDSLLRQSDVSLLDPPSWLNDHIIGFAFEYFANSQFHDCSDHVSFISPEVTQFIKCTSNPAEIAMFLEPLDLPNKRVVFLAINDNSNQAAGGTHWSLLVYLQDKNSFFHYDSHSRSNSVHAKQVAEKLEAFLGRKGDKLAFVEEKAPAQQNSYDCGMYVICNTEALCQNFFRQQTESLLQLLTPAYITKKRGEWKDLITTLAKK

Streptokinase A = target: T5, Streptokinase A (Streptococcus pyogenes serotype M1, UniProt P10520); experiment: S. pyogenes streptokinase expression inhibitors, potency, dose response, plasminogen activation absorbance, OD405 (AID 1914); assay type: functional, Streptococcus pyogenes M1 GAS;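 note: secreted streptokinase activity via plasminogen activation per viability signal from cell pellet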
T5 sequence (P10520 whole entry): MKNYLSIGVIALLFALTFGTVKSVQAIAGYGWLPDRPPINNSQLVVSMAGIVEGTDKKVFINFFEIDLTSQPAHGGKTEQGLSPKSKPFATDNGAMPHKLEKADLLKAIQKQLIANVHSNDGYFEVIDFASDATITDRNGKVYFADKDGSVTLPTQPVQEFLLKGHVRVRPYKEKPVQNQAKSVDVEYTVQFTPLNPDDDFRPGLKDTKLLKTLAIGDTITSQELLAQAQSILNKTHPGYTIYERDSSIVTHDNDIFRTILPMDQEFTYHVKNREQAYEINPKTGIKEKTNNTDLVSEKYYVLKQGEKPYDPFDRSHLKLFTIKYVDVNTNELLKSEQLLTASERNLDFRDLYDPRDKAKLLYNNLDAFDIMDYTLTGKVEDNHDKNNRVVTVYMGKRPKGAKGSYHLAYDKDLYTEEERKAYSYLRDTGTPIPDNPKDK

Trypsin = Trypsin (Sus scrofa, UniProt P00761); experiment: porcine trypsin inhibitors, dose response, selectivity assay for Rce1 protease inhibitor project, biochemical, quenched peptide fluorescence, cherry-pick (AID 488789)
[4] = target: T6, Short transient receptor potential channel 4 (Mus musculus, UniProt Q9QUQ5); experiment: mouse TRPC4 channel inhibitors, dose response, cell-based, HEK293 TRPC4/mu-opioid, Fluo-4 calcium (AID 434942); assay type: functional;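 note: potency of inhibitors blocking the TRPC4 calcium response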
T6 sequence (Q9QUQ5 whole entry): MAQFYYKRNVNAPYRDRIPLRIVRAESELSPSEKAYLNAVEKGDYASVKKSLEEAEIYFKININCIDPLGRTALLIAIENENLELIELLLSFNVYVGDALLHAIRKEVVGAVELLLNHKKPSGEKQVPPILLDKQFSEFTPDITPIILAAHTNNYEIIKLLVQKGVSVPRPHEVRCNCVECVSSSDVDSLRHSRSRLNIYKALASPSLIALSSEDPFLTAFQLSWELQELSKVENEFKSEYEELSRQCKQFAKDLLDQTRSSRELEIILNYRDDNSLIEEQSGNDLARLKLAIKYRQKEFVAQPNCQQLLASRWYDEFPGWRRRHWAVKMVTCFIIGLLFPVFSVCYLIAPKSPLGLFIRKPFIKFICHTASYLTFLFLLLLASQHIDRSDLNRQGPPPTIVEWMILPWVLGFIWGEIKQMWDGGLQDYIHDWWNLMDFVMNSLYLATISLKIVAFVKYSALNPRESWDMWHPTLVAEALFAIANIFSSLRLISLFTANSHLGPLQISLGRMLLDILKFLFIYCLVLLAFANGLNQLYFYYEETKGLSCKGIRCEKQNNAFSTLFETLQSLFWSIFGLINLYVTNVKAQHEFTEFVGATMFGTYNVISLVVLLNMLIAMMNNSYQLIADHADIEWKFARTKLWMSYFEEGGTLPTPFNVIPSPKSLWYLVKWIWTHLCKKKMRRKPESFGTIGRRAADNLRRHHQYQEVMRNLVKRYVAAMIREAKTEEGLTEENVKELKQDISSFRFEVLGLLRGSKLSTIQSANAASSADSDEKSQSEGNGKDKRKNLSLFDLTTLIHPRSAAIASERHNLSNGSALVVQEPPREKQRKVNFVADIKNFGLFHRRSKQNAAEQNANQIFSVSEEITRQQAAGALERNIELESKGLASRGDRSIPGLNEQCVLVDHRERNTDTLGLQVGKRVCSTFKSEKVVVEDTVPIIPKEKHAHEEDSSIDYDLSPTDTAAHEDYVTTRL

[5] = target: Heat shock protein HSP 90-alpha (Homo sapiens, UniProt P07900); assay type: functional, organism-based
[6] = inhibitors of HIV Env-driven cell fusion, dose response, cherry-pick (AID 652057); assay type: functional, cell-based
[7] = ZM109 Env clade C HIV-1 fusion inhibitors, dose response, HeLa effector, CEM target cells, luciferase, cherry-pick (AID 652058); assay type: functional, cell-based
[8] = off-target signal loss in HeLa-CEM21 co-culture – HeLa F-luc CTL cells, cherry-picked, counter-screen for HIV-1 Env fusion inhibitor project, dose response (AID 652040); assay type: functional, cell-based;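 note: potency for signal decrease marking cytotoxic or nonspecific inhibition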
[9] = inhibitors of clade B AD8 Env fusion, dose response, cell-based, cherry-pick (AID 652062); assay type: functional;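 note: luciferase signal from cell-cell fusion driven by HIV-1 clade B AD8 Env; potency is for inhibitors of fusion seen as a drop in luminescence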

Sequence of Trypsin (P00761 whole entry): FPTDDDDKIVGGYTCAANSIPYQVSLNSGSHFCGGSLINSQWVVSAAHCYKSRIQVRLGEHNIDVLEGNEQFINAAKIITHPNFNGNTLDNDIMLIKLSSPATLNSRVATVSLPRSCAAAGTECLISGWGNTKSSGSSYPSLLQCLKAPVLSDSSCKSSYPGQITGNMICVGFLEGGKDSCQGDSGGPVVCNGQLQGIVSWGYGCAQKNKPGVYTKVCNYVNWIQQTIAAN

| SMILES | IC50 (Caspase-3) | IC50 [1] | IC50 [2] | IC50 [3] | EC50 [4] | also measured |
| --- | --- | --- | --- | --- | --- | --- |
| Cc1cc(C)c(O)c(-c2cc(C(=O)Nc3cccnc3)[nH]n2)c1 | 31.4 µM (active) | 4.68 µM (active) | > 100 µM (inactive) | > 100 µM (inactive) |  |  |
| COc1cccc(C2CC(c3cccs3)=NN2C(=O)CSc2nc3c(cnn3-c3ccc(F)cc3)c(=O)[nH]2)c1OC (stereo not drawn) |  |  |  |  |  | EC50 (Streptokinase A): > 50 µM (not active); AC50 (Trypsin): 3.95 µM (active) |
| Cc1ccc(N=C(S)N(CCCN(C)C)Cc2cc3cc4c(cc3nc2O)OCO4)c(C)c1 |  |  |  |  | 3.35 µM (active) |  |
| CC(=O)c1sc(Nc2nc3ccc(F)cc3s2)nc1C | 18.8 µM (active) | 5.6 µM (active) | 11.2 µM (active) | 16 µM (active) |  |  |
| Cc1cc(C)c(S(=O)(=O)N2CCC(C(=O)NCc3ccc(Cl)cc3Cl)CC2)c(C)c1 |  |  |  |  |  | AC50 [5]: < 195 nM (active) |
| CC(C)(C)CC(C)(C)NCC(O)COc1ccc2c(c1)CCC2 (stereo not drawn) |  |  |  |  | 3.35 µM (active) |  |
| Cc1ccc(-c2noc(CSc3ccccc3)n2)cc1 | 25.5 µM (active) | 6.8 µM (active) | 36.4 µM (active) | 13.7 µM (active) |  |  |
| CCCC#Cc1ccc2c(c1)O[C@@H](CN(C)C(=O)C1CCCCC1)[C@H](C)CN([C@H](C)CO)S2(=O)=O |  |  |  |  |  | AC50 [6]: 21.7 µM (active); AC50 [7]: 13.3 µM (active) |
| COc1ccc(-n2nc3cc(N)c(Br)cc3n2)cc1 | 13.3 µM (active) | 5.03 µM (active) | 8.1 µM (active) | 11 µM (active) |  |  |
| C[C@H]1CNC(=O)c2c(C(=O)N3CCN(c4ccccc4)CC3)ncn21 |  |  |  |  |  | AC50 [6]: 4.6 µM (active); AC50 [7]: 3.25 µM (active); AC50 [8]: 9.62 µM (active); AC50 [9]: 7.04 µM (active) |
| Cc1ccc(OCc2nc(-c3cccs3)no2)c([N+](=O)[O-])c1 | 21.4 µM (active) | 5.51 µM (active) | 11.9 µM (active) | 10.2 µM (active) |  |  |
| C=CCc1ccccc1OCC(CN1CCCCC1)OC(C)=O (stereo not drawn) |  |  |  |  | 5.31 µM (active) |  |
| CNC(=O)c1ccsc1NC(=O)c1ccc2c(c1)CCCC2 | 28.4 µM (active) | 5.37 µM (active) | 8.31 µM (active) | 17.9 µM (active) |  |  |
| COc1ccc(/C=C2/CCc3ccccc3C2=O)cc1OC | 32.2 µM (active) | 8.88 µM (active) | 18 µM (active) | 17 µM (active) |  |  |
| CN(Cc1ccccc1)C(=O)CSc1nnc(-c2ccco2)n1-c1ccccc1 |  |  |  |  | 1.68 µM (active) |  |
| COc1ccc(CN(C)C(=O)c2ccc(NC(=O)CC3SC(N4CCCC4)=NC3=O)cc2)c(OC)c1 (stereo not drawn) |  |  |  |  | 2.37 µM (active) |  |
| CCc1c(C(=O)N2CCCN(C)CC2)csc1C |  |  |  |  | 5.96 µM (active) |  |

Reference: ChEMBL document CHEMBL1201862, “PubChem BioAssay data set” (2004)
